Like-named read-outs stand apart in the source and are kept apart here.
Key:
[1] = biological target: T1, p75^NTR receptors (PC12 cells) (Rattus norvegicus, UniProt P07174); assay: Basic screening assay: binding of 125I-BDNF to PC12 cells; conditions: read-out: BDNF Activity % Maximal Binding
T1 construct: endogenous in cells; host or cells: PC12 cells
T1 sequence (P07174 30-425): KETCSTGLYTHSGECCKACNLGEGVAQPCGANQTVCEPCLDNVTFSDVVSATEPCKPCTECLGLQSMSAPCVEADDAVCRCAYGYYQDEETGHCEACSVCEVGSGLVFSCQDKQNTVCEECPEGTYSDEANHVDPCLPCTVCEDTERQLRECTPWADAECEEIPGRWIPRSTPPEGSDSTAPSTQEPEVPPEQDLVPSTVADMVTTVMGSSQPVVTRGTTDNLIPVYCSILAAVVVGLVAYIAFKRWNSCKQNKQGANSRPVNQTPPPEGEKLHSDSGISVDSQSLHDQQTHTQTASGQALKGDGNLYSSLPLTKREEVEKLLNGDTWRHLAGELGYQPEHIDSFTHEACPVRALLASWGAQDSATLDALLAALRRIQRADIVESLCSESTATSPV
T1 sequence (P23560 129-247 partner): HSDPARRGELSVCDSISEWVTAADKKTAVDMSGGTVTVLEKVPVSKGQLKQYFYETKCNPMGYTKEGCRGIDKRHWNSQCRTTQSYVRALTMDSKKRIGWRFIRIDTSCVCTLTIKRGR
Experimental: (§1) The compounds were screened for effects on binding of ^125I-BDNF or ^125I-NGF to PC12 cells (p75^NTR receptors), and those that inhibited binding were further tested to determine the EC50 for this inhibition.
(§2) PC12 cells were cultured and prepared for binding assays as described in Example 1.
(§3) Lypophilized Peprotech human recombinant BDNF (Cedarlane Laboratories, Toronto, Canada, cat. # PE 450-02-10) was reconstituted under sterile conditions to 3.5 μM in sterile HKR/1%BSA, and either used immediately or stored in aliquots of 20 μl at −80° C. Immediately prior to use, a 15 nM (30×) solution of ^125I-BDNF or ^125I-NGF was prepared in HKR buffer, and was used at 0.5 nM final concentration.
(§4) Test Compounds were dissolved to 10 mM in DMSO, and those that were not initially soluble were warmed to 40-50° C. and vortexed. Those compounds that were still not in solution were reported as such. Compounds were then stored in this form at −20° C. until use. Immediately before experiments, 100 mM compounds were diluted to 10 mM in DMSO (1:10), followed by a further dilution to 1 mM (1:10) with distilled water, and a further dilution to 500 μM (1:1) with HKR.
(§5) Assays to determine maximum binding (Bmax), non-specific binding (NSB), and binding in the presence of each test compound (e.g., x, y) were performed at least in duplicate. In a total volume of 300 μL, 4×10^6 PC12 cells were incubated, rotating for 2 h at 4° C. with the following:
(§6) At the conclusion of the binding reaction, 100 μL aliquots of the reaction mixtures were carefully layered over 200 μL of a 10% glycerol solution in a 0.4 mL tube, and subjected to centrifugation in a microcentrifuge for 2 minutes at half maximum speed. The cell pellets containing the bound ^125I-BDNF or ^125I-NGF were then measured using a gamma counter. The mean values of the replicates were then calculated to determine the value for maximum binding (Bmax) and nonspecific binding (NSB), and binding in the presence of test compound at 50 μM (Bx). Specific binding (SB) was measured by subtracting the NSB from the Bmax.

[2] = tested on: p75^NTR receptors (PC12 cells); assay: Basic screening assay: binding of 125I-NGF to PC12 cells; conditions: test compound 50 μM, 0.5 nM 125I-NGF, PC12 cells, 2 h at 4° C., specific binding as percent of control
Experimental: as §1, §2
Lyophilized Serotec mouse 2.5S NGF (Cedarlane Laboratories, Toronto, Canada, cat. # PMP 04Z) was reconstituted under sterile conditions to 1 mg/mL (38 μM) in sterile 0.2% acetic acid, and 100 μL or 50 μL aliquots were stored frozen at −80° C.
as §3, §4, §5
as §6, with “Bmax. Specific binding in the presence of the test compound (SBx) was determined by subtracting the NSB from the Bx for each test compound; and each SBx was divided by SB and multiplied by 100 to give the specific binding in the presence of the compound as a percent of control specific binding.” for “Bmax.”

[3] = Table 1, test compound 50 μM, 0.5 nM 125I-BDNF, PC12 cells, 2 h at 4° C., specific binding as percent of control
[4] = Table 2, test compound 50 μM, 0.5 nM 125I-BDNF, PC12 cells, 2 h at 4° C., specific binding as percent of control

SMILES | activity at 50 µM [1, 3] [%] | NGF Activity % Maximal Binding ([2]; Table 1) | activity at 50 µM [1] [%] | NGF Activity % Maximal Binding ([2]; Table 2) | activity at 50 µM [1, 4] [%]
COC(=O)CN1C(=O)S/C(=C\c2ccc(-c3ccc([N+](=O)[O-])cc3)o2)C1=O [Compound 50, {5-[5-(4-Nitrophenyl)furan-2-ylmethylene]-2,4-dioxo-thiazolidin-3-yl}-acetic acid methyl ester] | 30 to 40 | * (50 < *) | – | – | –
O=C1NC(=S)S/C1=C/c1ccc(-c2ccc(Cl)c([N+](=O)[O-])c2)o1 [Compound 51, 5-[5-(4-Chloro-3-nitrophenyl)furan-2-ylmethylene]-2-thioxo-thiazolidin-4-one] | 30 to 40 | * (50 < *) | – | – | –
CCCC(C(=O)O)N1C(=O)C(=Cc2ccc(-c3ccc([N+](=O)[O-])cc3)o2)SC1=S (stereo not shown) [Compound 52, 2-{5-[5-(4-Nitrophenyl)furan-2-ylmethylene]-4-oxo-2-thioxo-thiazolidin-3-yl}-pentanoic acid] | 30 to 40 | * (50 < *) | – | – | –
Cc1cc([N+](=O)[O-])ccc1-c1ccc(/C=C2/C(=O)NC(=O)N(C)C2=O)o1 [Compound 53, 1-Methyl-5-[5-(2-methyl-4-nitrophenyl)furan-2-ylmethylene]-pyrimidine-2,4,6-trione] | – | * (50 < *) | 30 to 40 | – | –
CCOC(=O)c1ccc(-c2ccc(/C=C3/NC(=O)N(c4ccccc4)C3=O)o2)cc1 [Compound 54, 4-[5-(2,5-Dioxo-1-phenyl-imidazolidin-4-ylidenemethyl)furan-2-yl]benzoic acid ethyl ester] | 30 to 40 | * (50 < *) | – | – | –
CCN1C(=O)/C(=C/c2ccc(-c3ccc([N+](=O)[O-])cc3)o2)NC1=S [Compound 55, 3-Ethyl-5-[5-(4-nitrophenyl)furan-2-ylmethylene]-2-thioxo-imidazolidin-4-one] | 30 to 40 | * (50 < *) | – | – | –
COc1cc([N+](=O)[O-])ccc1-c1ccc(C=C2C(=O)ON=C2c2ccccc2)o1 [Compound 56, 4-[5-(2-Methoxy-4-nitrophenyl)furan-2-ylmethylene]-3-phenyl-4H-isoxazol-5-one] | 40 to 50 | * (50 < *) | – | – | –
CCOC(=O)c1ccc(N2NC(=O)/C(=C/c3ccc(-c4cccc(C(=O)O)c4)o3)C2=O)cc1 [Compound 57, 3-{5-[3,5-Dioxo-1-phenyl-(4-ethyl ester)-pyrazolidin-4-ylidenemethyl]furan-2-yl}benzoic acid] | 40 to 50 | * (50 < *) | – | – | –
CCN1C(=O)S/C(=C/c2ccc(-c3ccc([N+](=O)[O-])cc3OC)o2)C1=O [Compound 58, 3-Ethyl-5-[5-(2-methoxy-4-nitrophenyl)furan-2-ylmethylene]-thiazolidine-2,4-dione] | 40 to 50 | * (50 < *) | – | – | –
O=C1C(=Cc2ccc(-c3ccc([N+](=O)[O-])cc3)o2)SC(=S)N1Cc1cccnc1 [Compound 59, 5-[5-(4-Nitrophenyl)furan-2-ylmethylene]-3-pyridin-3-ylmethyl-2-thioxo-thiazolidin-4-one] | 40 to 50 | * (50 < *) | – | – | –
COc1cc([N+](=O)[O-])ccc1-c1ccc(/C=C2/SC(=S)N(C)C2=O)o1 [Compound 60, 5-[5-(2-Methoxy-4-nitrophenyl)furan-2-ylmethylene]-3-methyl-2-thioxo-thiazolidin-4-one] | 40 to 50 | * (50 < *) | – | – | –
CCOC(=O)CN1C(=O)S/C(=C\c2ccc(-c3ccc([N+](=O)[O-])cc3C)o2)C1=O [Compound 61, {5-[5-(2-Methyl-4-nitrophenyl)furan-2-ylmethylene]-2,4-dioxo-thiazolidin-3-yl}-acetic acid ethyl ester] | 40 to 50 | * (50 < *) | – | – | –
CCCSC1=NC(=Cc2ccc(-c3ccc([N+](=O)[O-])cc3Cl)o2)C(=O)S1 [Compound 62, 4-[5-(2-Chloro-4-nitrophenyl)furan-2-ylmethylene]-2-propylsulfanyl-4H-thiazol-5-one] | 40 to 50 | * (50 < *) | – | – | –
CCOC(=O)c1ccc(-c2ccc(/C=C3/C(=O)NN(c4cccc(C)c4)C3=O)o2)cc1 [Compound 63, 4-[5-(3,5-Dioxo-1-m-tolyl-pyrazolidin-4-ylidenemethyl)furan-2-yl]benzoic acid ethyl ester] | 40 to 50 | * (50 < *) | – | – | –
COC(=O)C(C)N1C(=O)S/C(=C/c2ccc(-c3ccc(C)c([N+](=O)[O-])c3)o2)C1=O (stereo not shown) [Compound 64, 2-{5-[5-(4-Methyl-3-nitrophenyl)furan-2-ylmethylene]-2,4-dioxo-thiazolidin-3-yl}-propionic acid methyl ester] | 40 to 50 | * (50 < *) | – | – | –
Cc1cc(C(=O)O)ccc1-c1ccc(/C=C2\C(=O)NC(=O)N(c3ccccc3F)C2=O)o1 [Compound 66, 4-{5-[1-(2-Fluorophenyl)-2,4,6-trioxo-tetrahydro-pyrimidin-5-ylidenemethyl]furan-2-yl}-3-methylbenzoic acid] | – | – | 0 to 10 | XXX (20 < XXX < 30) | –
COC(=O)CN1C(=O)S/C(=C/c2ccc(-c3ccc(C(=O)O)c(Cl)c3)o2)C1=O [Compound 67, 2-Chloro-4-[5-(3-methoxycarbonylmethyl-2,4-dioxo-thiazolidin-5-ylidenemethyl)furan-2-yl]benzoic acid] | – | – | – | XX (30 < XX < 40) | 0 to 10
CCOC(=O)c1ccc(-c2ccc(/C=C3/SC(=S)N(CC(=O)O)C3=O)o2)cc1 [Compound 68, 4-[5-(3-Carboxymethyl-4-oxo-2-thioxo-thiazolidin-5-ylidenemethyl)furan-2-yl]benzoic acid ethyl ester] | – | – | – | XX (30 < XX < 40) | 0 to 10
COC(=O)c1cccc(-c2ccc(/C=C3/SC(=S)N(CC(=O)O)C3=O)o2)c1 [Compound 69, 3-[5-(3-Carboxymethyl-4-oxo-2-thioxo-thiazolidin-5-ylidenemethyl)furan-2-yl]benzoic acid methyl ester] | – | – | – | XX (30 < XX < 40) | 0 to 10
O=C1NC(=S)N(c2ccc(F)cc2)C(=O)/C1=C\c1ccc(-c2cccc([N+](=O)[O-])c2)o1 [Compound 70, 1-(4-Fluorophenyl)-5-[5-(3-nitrophenyl)furan-2-ylmethylene]-2-thioxo-dihydro-pyrimidine-4,6-dione] | – | – | 0 to 10 | X (40 < X < 50) | –

Source: patent US20050282840A1, “Methods of modulating neurotrophin-mediated activity” (PainCeptor Pharma Corporation, priority 2004, published 2005)
